Measurements published in US6905016B2, “Packaging system for transdermal drug delivery systems” (Noven Pharmaceuticals, Inc., priority 2000, dated 2005).
Entries after “also recorded” stand apart in the source; their conditions may differ.

Tests used:
[1] = tested on: beta-adrenergic; conditions: L-form versus D-enantiomer; cited from earlier work
[2] = prescribed for morning sickness during pregnancy; cited from earlier work
[3] = Degradation of methylphenidate in presence of moisture or packaging materials (observation)

For `CC(C)NC[C@H](O)COc1cccc2ccccc12` [L-form of propranolol, propranolol], the “potency relative to the D-enantiomer” value [1] is listed as 100 times.

In the case of `O=C1CCC(N2C(=O)c3ccccc3C2=O)C(=O)N1` (single isomer, unassigned) [D-enantiomer of thalidomide, thalidomide], the “safety/effect of enantiomer in pregnancy” value [2] is listed as “safe and effective sedative”.

For `O=C1CCC(N2C(=O)c3ccccc3C2=O)C(=O)N1` (single isomer, unassigned) [L-enantiomer of thalidomide, thalidomide], the “safety/effect of enantiomer in pregnancy” value [2] is listed as “potent teratogen”.

With `COC(=O)C(c1ccccc1)C1CCCCN1` (centres unmarked) [methylphenidate] the “stability in the presence of packaging materials” value ([3]; certain types of packaging materials used for transdermal systems) was “unstable” and the “degradation in the presence of moisture” value ([3]; exposure to moisture) was “form ritalinic acid by hydrolysis; also recorded: formation of the erythro-enantiomers”.
